# Measured values from patent publication US8841483B2, “Compositions useful as inhibitors of voltage-gated sodium channels” (Vertex Pharmaceuticals Incorporated, priority 2006, dated 2014).
# Where two headings read alike, the source gives them in different places.
# Columns and labels:
# NaV1.8 [1] = target: T1, NaV1.8 (Homo sapiens, UniProt Q9Y5Y9); assay: Activity against NaV 1.8 channel (Table 3), optical membrane potential / electrophysiology assays; type: cell-based
# Experimental: Compounds of the invention are useful as antagonists of voltage-gated sodium ion channels. Antagonist properties of test compounds were assessed as follows. Cells expressing the NaV of interest were placed into microtiter plates. After an incubation period, the cells were stained with fluorescent dyes sensitive to the transmembrane potential. The test compounds were added to the microtiter plate. The cells were stimulated with either a chemical or electrical means ti evoke a NaV dependent membrane potential change from unblocked channels, which was detected and measured with trans-membrane potential-sensitive dyes. Antagonists were detected as a decreased membrane potential response to the stimulus. The optical membrane potential assay utilized voltage-sensitive FRET sensors described by Gonzalez and Tsien (See, Gonzalez, J. E. and R. Y. Tsien (1995) “Voltage sensing by fluorescence resonance energy transfer in single cells” Biophys J 69(4): 1272-80, and Gonzalez, J. E. and R. Y. Tsien (1997) “Improved indicators of cell membrane potential that use fluorescence resonance energy transfer” Chem Biol 4(4): 269-77) in combination with instrumentation for measuring fluorescence changes such as the Voltage/Ion Probe Reader (VIPR®) (See, Gonzalez, J. E., K. Oades, et al. (1999) “Cell-based assays and instrumentation for screening ion-channel targets” Drug Discov Today 4(9): 431-439).
# The following is an example of how NaV1.3 inhibition activity is measured using the optical membrane potential method #2. Other subtypes are performed in an analogous mode in a cell line expressing the NaV of interest.
# HEK293 cells stably expressing NaV1.3 are plated into 96-well microtiter plates. After an appropriate incubation period, the cells are stained with the voltage sensitive dyes CC2-DMPE/DiSBAC2(3) as follows.
# 2X CC2-DMPE=20 μM CC2-DMPE: 10 mM CC2-DMPE is vortexed with an equivalent volume of 10% pluronic, followed by vortexing in required amount of HBSS containing 10 mM HEPES. Each cell plate will require 5 mL of 2X CC2-DMPE. 50 μL of 2X CC2-DMPE is to wells containing washed cells, resulting in a 10 μM final staining concentration. The cells are stained for 30 minutes in the dark at RT.
# 2X DISBAC2(3) with ABSC1=6 μM DISBAC2(3) and 1 mM ABSC1: The required amount of 10 mM DISBAC2(3) is added to a 50 ml conical tube and mixed with 1 μL 10% pluronic for each mL of solution to be made and vortexed together. Then HBSS/HEPES is added to make up 2X solution. Finally, the ABSC1 is added.
# The 2X DiSBAC2(3) solution can be used to solvate compound plates. Note that compound plates are made at 2X drug concentration. Wash stained plate again, leaving residual volume of 50 μL. Add 50 uL/well of the 2X DiSBAC2(3) w/ABSC1. Stain for 30 minutes in the dark at RT.
# The electrical stimulation instrument and methods of use are described in ION Channel Assay Methods PCT/US01/21652, herein incorporated by reference. The instrument comprises a microtiter plate handler, an optical system for exciting the coumarin dye while simultaneously recording the coumarin and oxonol emissions, a waveform generator, a current- or voltage-controlled amplifier, and a device for inserting electrodes in well. Under integrated computer control, this instrument passes user-programmed electrical stimulus protocols to cells within the wells of the microtiter plate.
# Assay Protocol • 1. Insert or use electrodes into each well to be assayed. • 2. Use the current-controlled amplifier to deliver stimulation wave pulses for 3 s. Two seconds of pre-stimulus recording are performed to obtain the un-stimulated intensities. Five seconds of post-stimulation recording are performed to examine the relaxation to the resting state.
# Data are analyzed and reported as normalized ratios of background-subtracted emission intensities measured in the 460 nm and 580 nm channels. Background intensities are then subtracted from each assay channel. […]
# NaV1.3 = NaV1.3 (Homo sapiens, UniProt Q9NY46); conditions: read-out: TTX IC50; cited from earlier work
# NaV1.6 = NaV1.6 (Homo sapiens, UniProt Q9UQD0); conditions: read-out: TTX IC50; cited from earlier work
# Chain of NaV1.6 (Q9UQD0 whole entry, looked up): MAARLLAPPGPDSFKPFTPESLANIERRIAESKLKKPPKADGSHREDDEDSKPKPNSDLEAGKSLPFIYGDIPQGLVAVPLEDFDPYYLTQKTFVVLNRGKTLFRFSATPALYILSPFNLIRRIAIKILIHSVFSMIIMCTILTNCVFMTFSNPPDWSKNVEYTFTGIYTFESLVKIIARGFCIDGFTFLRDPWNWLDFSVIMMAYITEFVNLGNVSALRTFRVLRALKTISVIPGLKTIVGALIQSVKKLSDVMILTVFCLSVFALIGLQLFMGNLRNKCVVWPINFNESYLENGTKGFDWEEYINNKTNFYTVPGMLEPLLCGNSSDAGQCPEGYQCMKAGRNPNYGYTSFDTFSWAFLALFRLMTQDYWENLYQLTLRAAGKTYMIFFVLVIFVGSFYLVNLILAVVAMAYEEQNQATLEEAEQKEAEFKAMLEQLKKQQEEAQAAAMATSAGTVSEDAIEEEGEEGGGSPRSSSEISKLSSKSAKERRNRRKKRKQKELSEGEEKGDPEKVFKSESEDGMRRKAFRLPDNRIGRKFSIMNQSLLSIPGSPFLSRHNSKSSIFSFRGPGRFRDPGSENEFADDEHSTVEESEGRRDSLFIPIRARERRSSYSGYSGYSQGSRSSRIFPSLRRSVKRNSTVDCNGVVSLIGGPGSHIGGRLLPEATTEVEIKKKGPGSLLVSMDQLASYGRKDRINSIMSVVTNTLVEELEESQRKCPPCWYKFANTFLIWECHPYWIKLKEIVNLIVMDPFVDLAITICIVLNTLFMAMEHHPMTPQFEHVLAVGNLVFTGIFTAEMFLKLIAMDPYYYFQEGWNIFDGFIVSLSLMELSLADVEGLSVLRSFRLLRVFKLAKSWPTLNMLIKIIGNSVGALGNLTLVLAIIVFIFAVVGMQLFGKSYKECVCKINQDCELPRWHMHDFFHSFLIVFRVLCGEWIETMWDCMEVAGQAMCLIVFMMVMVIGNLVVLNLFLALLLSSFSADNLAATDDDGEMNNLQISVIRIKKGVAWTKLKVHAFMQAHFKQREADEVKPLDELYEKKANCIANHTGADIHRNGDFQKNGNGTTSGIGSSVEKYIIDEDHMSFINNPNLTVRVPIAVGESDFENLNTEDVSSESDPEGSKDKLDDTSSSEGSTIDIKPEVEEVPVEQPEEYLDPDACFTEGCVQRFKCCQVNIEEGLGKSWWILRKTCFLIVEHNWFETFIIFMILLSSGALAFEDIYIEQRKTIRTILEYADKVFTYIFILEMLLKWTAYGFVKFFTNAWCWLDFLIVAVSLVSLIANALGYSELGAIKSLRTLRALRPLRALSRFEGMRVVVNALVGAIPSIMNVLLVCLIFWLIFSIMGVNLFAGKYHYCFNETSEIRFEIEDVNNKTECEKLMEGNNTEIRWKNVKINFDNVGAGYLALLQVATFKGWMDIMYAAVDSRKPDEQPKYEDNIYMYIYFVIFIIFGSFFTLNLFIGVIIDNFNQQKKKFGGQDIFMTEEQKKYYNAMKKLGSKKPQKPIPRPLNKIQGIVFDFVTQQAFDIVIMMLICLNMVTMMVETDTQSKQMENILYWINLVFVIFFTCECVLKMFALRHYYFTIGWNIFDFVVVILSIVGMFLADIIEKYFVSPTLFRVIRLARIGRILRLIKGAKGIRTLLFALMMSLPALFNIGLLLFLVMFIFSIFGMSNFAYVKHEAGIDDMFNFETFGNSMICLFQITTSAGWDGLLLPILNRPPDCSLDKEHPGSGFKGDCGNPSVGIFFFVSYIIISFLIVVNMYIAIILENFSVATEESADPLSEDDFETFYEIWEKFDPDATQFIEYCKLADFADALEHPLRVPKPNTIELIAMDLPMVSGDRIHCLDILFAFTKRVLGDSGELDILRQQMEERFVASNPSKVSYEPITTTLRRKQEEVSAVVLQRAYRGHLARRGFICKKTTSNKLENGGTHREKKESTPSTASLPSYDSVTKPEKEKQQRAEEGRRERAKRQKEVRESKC
# NaV1.8 [2] = target: T1, NaV1.8; conditions: read-out: TTX IC50; cited from earlier work
# NaV1.9 = NaV1.9 (Homo sapiens, UniProt Q9UI33); conditions: read-out: TTX IC50; cited from earlier work
# Chain of NaV1.9 (Q9UI33 whole entry, looked up): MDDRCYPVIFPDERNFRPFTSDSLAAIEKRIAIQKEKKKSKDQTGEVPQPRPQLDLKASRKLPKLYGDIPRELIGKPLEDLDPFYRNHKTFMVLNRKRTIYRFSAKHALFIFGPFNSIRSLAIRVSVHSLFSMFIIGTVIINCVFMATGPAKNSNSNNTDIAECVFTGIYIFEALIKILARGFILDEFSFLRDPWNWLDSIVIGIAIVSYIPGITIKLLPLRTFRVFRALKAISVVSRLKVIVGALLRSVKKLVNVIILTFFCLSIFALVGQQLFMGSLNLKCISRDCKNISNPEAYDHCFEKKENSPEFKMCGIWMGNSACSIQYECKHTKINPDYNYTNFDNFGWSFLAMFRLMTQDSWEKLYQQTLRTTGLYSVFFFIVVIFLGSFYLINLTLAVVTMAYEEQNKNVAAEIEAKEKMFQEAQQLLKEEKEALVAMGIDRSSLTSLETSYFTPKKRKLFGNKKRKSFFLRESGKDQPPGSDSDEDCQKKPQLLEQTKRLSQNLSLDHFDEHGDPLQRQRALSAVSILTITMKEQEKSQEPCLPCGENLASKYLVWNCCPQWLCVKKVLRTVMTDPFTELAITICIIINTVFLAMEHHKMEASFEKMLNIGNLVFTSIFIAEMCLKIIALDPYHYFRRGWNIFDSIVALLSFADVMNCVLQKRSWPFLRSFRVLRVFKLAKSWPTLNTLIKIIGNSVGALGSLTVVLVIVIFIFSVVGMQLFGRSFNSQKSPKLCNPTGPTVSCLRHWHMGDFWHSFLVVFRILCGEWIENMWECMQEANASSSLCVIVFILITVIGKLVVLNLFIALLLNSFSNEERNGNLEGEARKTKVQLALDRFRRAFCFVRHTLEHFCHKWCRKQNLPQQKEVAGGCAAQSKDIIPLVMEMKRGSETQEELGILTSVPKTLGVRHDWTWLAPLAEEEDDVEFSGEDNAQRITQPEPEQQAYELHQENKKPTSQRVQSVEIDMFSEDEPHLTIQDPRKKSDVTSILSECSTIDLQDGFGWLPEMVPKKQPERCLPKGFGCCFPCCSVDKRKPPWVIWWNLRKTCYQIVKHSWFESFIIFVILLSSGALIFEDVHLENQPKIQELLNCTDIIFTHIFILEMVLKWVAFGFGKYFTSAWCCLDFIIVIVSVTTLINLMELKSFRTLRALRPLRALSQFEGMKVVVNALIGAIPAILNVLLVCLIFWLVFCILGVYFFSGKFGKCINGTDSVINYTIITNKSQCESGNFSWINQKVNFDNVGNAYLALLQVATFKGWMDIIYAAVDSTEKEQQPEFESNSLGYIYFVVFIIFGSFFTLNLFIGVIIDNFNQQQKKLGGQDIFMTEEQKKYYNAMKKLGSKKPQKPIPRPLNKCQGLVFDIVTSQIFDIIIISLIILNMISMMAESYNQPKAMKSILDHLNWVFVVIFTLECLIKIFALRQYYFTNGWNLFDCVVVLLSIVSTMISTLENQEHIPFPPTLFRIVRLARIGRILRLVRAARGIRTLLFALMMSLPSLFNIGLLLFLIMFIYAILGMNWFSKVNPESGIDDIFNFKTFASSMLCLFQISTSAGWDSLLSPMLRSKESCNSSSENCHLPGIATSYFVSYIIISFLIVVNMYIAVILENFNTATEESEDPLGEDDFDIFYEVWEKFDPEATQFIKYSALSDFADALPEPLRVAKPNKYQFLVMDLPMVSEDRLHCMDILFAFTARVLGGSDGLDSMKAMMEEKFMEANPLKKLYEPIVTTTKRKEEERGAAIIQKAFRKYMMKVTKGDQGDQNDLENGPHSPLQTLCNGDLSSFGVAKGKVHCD
# NaV1.1 = NaV1.1 (Homo sapiens, UniProt P35498); conditions: read-out: TTX IC50; cited from earlier work
# NaV1.2 = NaV1.2 (Homo sapiens, UniProt Q99250); conditions: read-out: TTX IC50; cited from earlier work
Compound,IC50 (NaV1.8 [1]),also measured
Cc1ccc(Oc2cc(C(C)(C)C)ccc2C(=O)Nc2cccc(S(N)(=O)=O)c2)c(C)c1 [Compound 109],< 2 µM,–
CC(C)(C)c1ccc(C(=O)Nc2cccc(S(N)(=O)=O)c2)c(Oc2cccc(F)c2)c1 [Compound 132],< 2 µM,–
NS(=O)(=O)c1cccc(NC(=O)c2ccccc2-n2cccc2)c1 [Compound 4],> 10 µM,–
CCOc1ccc(C(=O)Nc2cccc(S(N)(=O)=O)c2)c(OCC)c1 [Compound 117],> 10 µM,–
CC(C)(C)c1ccc(C(=O)Nc2cccc(S(N)(=O)=O)c2)c(Oc2ccccc2)c1 [Compound 1],< 2 µM,–
NS(=O)(=O)c1cccc(NC(=O)c2ccccc2Nc2cccc(Oc3ccccc3)c2)c1 [Compound 17],> 10 µM,–
COc1ccc(C(=O)Nc2cccc(S(N)(=O)=O)c2)c(OC)c1 [Compound 123],> 10 µM,–
N#Cc1ccc(C(=O)Nc2cccc(S(N)(=O)=O)c2)cc1 [Compound 52],> 10 µM,–
NS(=O)(=O)c1cccc(NC(=O)c2ccccc2Oc2ccccc2Cl)c1 [Compound 21],< 2 µM,–
NS(=O)(=O)c1cccc(NC(=O)c2ccccc2Nc2cccnc2)c1 [Compound 27],2 to 10 µM,–
NS(=O)(=O)c1cccc(NC(=O)c2ccc(-c3ccccc3)cc2)c1 [Compound 58],> 10 µM,–
CC(C)(C)c1ccc(C(=O)Nc2cccc(S(N)(=O)=O)c2)c(Oc2ccc(C(F)(F)F)cc2Cl)c1 [Compound 116],2 to 10 µM,–
CC(C)(C)c1ccc(C(=O)Nc2cccc(S(N)(=O)=O)c2)c(Oc2ccccc2C(F)(F)F)c1 [Compound 104],< 2 µM,–
"CC(C)(C)c1ccc(C(=O)Nc2cccc(S(N)(=O)=O)c2)c(S(=O)(=O)c2ccccc2)c1 [Compound 112, 4-tert-Butyl-2-(phenylsulfonyl)-N-(3-sulfamoylphenyl)benzamide]",2 to 10 µM,–
CC(=O)Nc1ccc(C(=O)Nc2cccc(S(N)(=O)=O)c2)cc1 [Compound 54],> 10 µM,–
Cc1cccc(Oc2cc(C(C)(C)C)ccc2C(=O)Nc2cccc(S(N)(=O)=O)c2)c1 [Compound 119],< 2 µM,–
COc1ccc(C(=O)Nc2cccc(S(N)(=O)=O)c2)c(C)c1 [Compound 141],> 10 µM,–
CCOc1ccc(C(=O)Nc2cccc(S(N)(=O)=O)c2)cc1 [Compound 64],> 10 µM,–
CC(C)(C)c1ccc(C(=O)Nc2cccc(S(N)(=O)=O)c2)c(Oc2cc(C(F)(F)F)ncn2)c1 [Compound 129],> 10 µM,–
NS(=O)(=O)c1cccc(NC(=O)c2cccc(OC(F)(F)F)c2)c1 [Compound 74],> 10 µM,–
COc1ccc(C(=O)Nc2cccc(S(N)(=O)=O)c2)cc1OC [Compound 9],> 10 µM,–
NS(=O)(=O)c1cccc(NC(=O)c2ccc(Br)cc2)c1 [Compound 13],> 10 µM,–
"CC(C)(C)c1ccc(C(=O)Nc2cccc(S(N)(=O)=O)c2)c([S+]([O-])c2ccccc2)c1 (stereo not drawn) [Compound 110, 4-tert-Butyl-2-(phenylsulfinyl)-N-(3-sulfamoylphenyl)benzamide]",2 to 10 µM,–
CC(=O)c1ccccc1C(=O)Nc1cccc(S(N)(=O)=O)c1 [Compound 122],> 10 µM,–
NS(=O)(=O)c1cccc(NC(=O)c2ccccc2NC(=O)c2cccnc2)c1 [Compound 20],> 10 µM,–

Compound,IC50 (NaV1.8 [1]),also measured
NS(=O)(=O)c1cccc(NC(=O)c2ccccc2NCc2ccccc2)c1 [Compound 68],> 10 µM,–
CC(C)(C)c1ccc(C(=O)Nc2cccc(S(N)(=O)=O)c2)c(Oc2cccc(N3CCOCC3)c2)c1 [Compound 136],> 10 µM,–
Cc1cc(Cl)ccc1C(=O)Nc1cccc(S(N)(=O)=O)c1 [Compound 29],> 10 µM,–
CNS(=O)(=O)c1cccc(NC(=O)c2ccc(C(C)(C)C)cc2)c1 [Compound 14],2 to 10 µM,–
COc1cc(C(C)(C)C)ccc1C(=O)Nc1cccc(S(N)(=O)=O)c1 [Compound 106],< 2 µM,–
COc1ccc(C(=O)Nc2cccc(S(N)(=O)=O)c2)cc1 [Compound 22],> 10 µM,–
CCc1ccccc1C(=O)Nc1cccc(S(N)(=O)=O)c1 [Compound 137],> 10 µM,–
CC(C)(C)c1ccc(C(=O)Nc2cccc(S(N)(=O)=O)c2)c(Oc2ccc(C#N)cc2)c1 [Compound 130],< 2 µM,–
NS(=O)(=O)c1cccc(NC(=O)c2cccc(N3CCNC3=O)c2)c1 [Compound 86],> 10 µM,–
CC(C)(C)c1ccc(C(=O)Nc2ccc(Cl)c(S(N)(=O)=O)c2)cc1 [Compound 79],< 2 µM,–
Cc1cc(Oc2cc(C(C)(C)C)ccc2C(=O)Nc2cccc(S(N)(=O)=O)c2)cc(C)n1 [Compound 124],> 10 µM,–
NS(=O)(=O)c1cccc(NC(=O)c2ccccc2Oc2ccc(C(F)(F)F)cc2)c1 [Compound 16],< 2 µM,–
"NC1=N[C@H](O)[C@H]2[C@H]3O[C@]4(O)O[C@@H]([C@@H](O)[C@@]2(N1)[C@@H]4O)[C@]3(O)CO [TTX, tetrodotoxin]",–,IC50 (NaV1.3): 0.015 µM; IC50 (NaV1.6): 0.006 µM; IC50 (NaV1.8 [2]): > 50 µM; IC50 (NaV1.9): 1 µM; IC50 (NaV1.1): 0.01 µM; IC50 (NaV1.2): 0.01 µM
Cc1ccc(Oc2cc(C(C)(C)C)ccc2C(=O)Nc2cccc(S(N)(=O)=O)c2)c(C)n1 [Compound 99],< 2 µM,–
CC(C)(C)c1ccc(C(=O)Nc2cccc(S(N)(=O)=O)c2)c(Oc2ccccc2Cl)c1 [Compound 48],< 2 µM,–
Cc1ccc(S(N)(=O)=O)cc1NC(=O)c1ccc(Cl)cc1[N+](=O)[O-] [Compound 41],> 10 µM,–
CC(C)c1ccc(C(=O)Nc2cccc(S(N)(=O)=O)c2)cc1 [Compound 10],2 to 10 µM,–
CCCCc1ccc(C(=O)Nc2cccc(S(N)(=O)=O)c2)cc1 [Compound 96],> 10 µM,–
COc1ccc(C(=O)Nc2cccc(S(N)(=O)=O)c2)cc1C(F)(F)F [Compound 42],> 10 µM,–
CC(C)COC(=O)N1CCN(c2ccccc2C(=O)Nc2cccc(S(N)(=O)=O)c2)CC1 [Compound 45],> 10 µM,–
COc1ccc(Oc2cc(C(C)(C)C)ccc2C(=O)Nc2cccc(S(N)(=O)=O)c2)cc1 [Compound 88],< 2 µM,–
Cc1ccccc1Oc1cc(C(C)(C)C)ccc1C(=O)Nc1cccc(S(N)(=O)=O)c1 [Compound 55],< 2 µM,–
COc1cc(Cl)ccc1C(=O)Nc1cccc(S(N)(=O)=O)c1 [Compound 140],> 10 µM,–
CC(C)(C)c1ccc(C(=O)Nc2cccc(S(N)(=O)=O)c2)c(Oc2ccc(F)cc2F)c1 [Compound 107],< 2 µM,–
